Laboratory results: ChEMBL document CHEMBL1130524, “An aromatic moiety is not essential for pharmacophore binding to sigma binding sites: Synthesis of N-alkylazacycloheptane derivatives as potent sigma ligands” (Bioorg Med Chem Lett, 1997)

These compounds were tested against Sigma 2 receptor (assay: Inhibition of [3H]-DTG binding to Sigma opioid receptor type 2).

Structure (SMILES) | Ki
CC1(C)C2CC[C@]1(C)CN(CCCC1CCCCC1)C2 | 0.56 nM
CC1(C)C2CC[C@]1(C)CN(CCC1CCCCCCC1)C2 | 0.33 nM
CC1(C)C2CC[C@@]1(C)CN(CC1CCCCC1)C2 | 3.54 nM
CC1(C)C2CC[C@]1(C)CN(CC1CCCCC1)C2 | 3.14 nM
CC1(C)C2CC[C@]1(C)CN(CCC1CCCC1)C2 | 0.7 nM
CC1(C)C2CC[C@]1(C)CN(CCC1C3CC4CC(C3)CC1C4)C2 (some centres not stated) | 0.77 nM
CC1(C)C2CC[C@]1(C)CN(C1CCCCC1)C2 | 1.1 nM
CC1(C)C2CC[C@]1(C)CN(CCCCC1CCCCC1)C2 | 6.79 nM
CC1(C)C2CC[C@]1(C)CN(CCC1CCCCC1)C2 | 0.28 nM
CC1(C)C2CC[C@@]1(C)CN(CCC1CCCCC1)C2 | 0.23 nM
CC1(C)C2CC[C@]1(C)CN(CCC1CCCCCC1)C2 | 0.25 nM
C=CCN1CC[C@@]2(C)c3cc(O)ccc3C[C@H]1[C@H]2C (racemic) | 14200 nM
